Like-named read-outs stand apart in the source and are kept apart here.

Assay [1] deals with HL-7002 cells. In words: cells. The following applies: Homo sapiens, Hepatocyte.
In assay [2] the test system is HEK293 cells. To be noted: step-wise concentrations 0.01 to 300 μM, OD490, FIG. 4 and FIG. 8.
Assay [3] concerns HT29 cells. In words: MTS cell viability assay in colorectal cancer cell line HT29. The class given is cell-based. The following applies: step-wise concentrations 0.01 to 300 μM, OD490, FIG. 6. A general note: Formazan colour is commonly taken as a measure of viable cells.
Method: HT29 cells are a colorectal cancer cell line. […] The index of cell growth repression ratio was obtained by comparing the OD490 data of treatment group to the negative control. The drug response rate IC50 was calculated with the SPSS 16.0 system.
(§1) The cells were cultured in RPMI+5% Fetal Bovine Serum (FBS).
(§2) The cells were monitored daily, and the cell viability was evaluated with the Promega CellTiter 96 AQueous One Solution Cell Proliferation Assay (Promega, Madison, Wis., USA) according to the manufacture manuals. The cell viability was monitored at OD490 reading in a bio-spectrometer (Perkin Elmer, Walthan, Mass., USA).
(§3) Data analysis: The OD490 reading data were collected hourly from 1 h to 4 h after the addition of lysis buffer. The index of cell growth repression ratio was obtained by comparing the OD490 data of treatment to the negative control. The drug response rate IC50 was calculated with the SPSS 16.0.
In assay [4] the test system is HL-7002 cells. The following applies: step-wise concentrations 0.01 to 300 μM, OD490, FIG. 3 and FIG. 7.
Assay [5] relates to HCT-116 cells. In words: MTS cell viability assay in colorectal cancer cell line HCT-116. The class given is cell-based. To be noted: step-wise concentrations 0.01 to 300 μM, OD490, FIG. 5, read-out: IC50 for the reduction of HCT-116 cell number.
Method: (§4) The index of cell growth repression ratio was obtained by comparing the OD490 data of treatment group to the negative control. The drug response rate IC50 was calculated with the SPSS 16.0 system.
as §1, §2, §3
Assay [6] deals with PC-3 cells. In words: MTS cell viability assay (CellTiter 96 AQueous One) in PC-3 prostate cancer cells. The assay is classed as cell-based, human. To be noted: step-wise concentrations 0.01 to 300 μM, OD490, FIG. 1.
Method: as §4
(§5) Cell culture: Prostate cancer cell lines LNCaP and PC-3 were purchased from ATCC (Manassas, Va.). […] The cells were cultured in RPMI+5% Fetal Bovine Serum (FBS).
(§6) The cells treated with the solvents were used as the negative control, and cisplatin and docetaxel were used as the positive controls. The cells were monitored daily, and the cell viability was evaluated with the Promega CellTiter 96 AQueous One Solution Cell Proliferation Assay (Promega, Madison, Wis., USA) according to the manufacture manuals. The cell viability was monitored at OD490 reading in a bio-spectrometer (Perkin Elmer, Walthan, Mass., USA).
as §3
Assay [7] relates to LNCaP cells. In words: MTS cell viability assay (CellTiter 96 AQueous One) in LNCaP prostate cancer cells. The assay is classed as cell-based, human. To be noted: step-wise concentrations 0.01 to 300 μM, OD490, FIG. 2.
Method: as §4, §5, §6
Data analysis: The OD490 reading data were collected hourly from 1 h to 4 h after the addition of lysis buffer. The index of cell growth repression ratio was obtained by comparing the OD490 data of treatment to the negative control.

As for `CC(=O)O[C@@]12CO[C@@H]1C[C@H](O)[C@@]1(C)C(=O)[C@H](O)C3=C(C)[C@@H](OC(=O)[C@H](O)[C@@H](NC(=O)OC(C)(C)C)c4ccccc4)C[C@@](O)([C@@H](OC(=O)c4ccccc4)[C@H]21)C3(C)C` [docetaxel], in assay [1], half-maximal inhibition (IC50) required 0.095 µM.
As for `O=C1[O][Pt]2([NH][C@@H]3CCCC[C@H]3[NH]2)[O]C1=O` [oxaliplatin], the IC50 (usually the midpoint of a concentration-inhibition curve) came out at 10.1 µM in assay [2], 30 µM in assay [3], 2.44 µM in assay [4] and 8.15 µM in assay [5].
Take cisplatin: the IC50 came out at 6.9 µM in assay [2], 2.01 µM in assay [4], 2.49 µM in assay [6] and 2.25 µM in assay [7].
